This note sets out measurements from US9266876B2 (Actelion Pharmaceuticals Ltd., priority 2012, dated 2016).

pIC50: −log10 of the molar value.

The target in assay [1] is CXCR3 (Homo sapiens (Human), UniProt P49682). Kind of assay: Receptor internalization assay. It is filed as cell-based. Particulars: human whole blood; final CXCL10 concentration 9 nM; 30 min 37° C.; CXCR3 cell surface expression on CD3 positive cells, flow cytometer; read-out: Internalization IC50. A digest of the protocol: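 In human whole blood, compounds were incubated with CXCL10 (9 nM final) for 30 min at 37 °C to drive receptor internalization, then stained with anti-CXCR3/CD3 antibodies and lysed of red cells. Flow cytometry measured mean surface CXCR3 fluorescence on CD3+ cells, and IC50 came from single-site dose-response fits.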
CXCR3, sequence (P49682 whole entry): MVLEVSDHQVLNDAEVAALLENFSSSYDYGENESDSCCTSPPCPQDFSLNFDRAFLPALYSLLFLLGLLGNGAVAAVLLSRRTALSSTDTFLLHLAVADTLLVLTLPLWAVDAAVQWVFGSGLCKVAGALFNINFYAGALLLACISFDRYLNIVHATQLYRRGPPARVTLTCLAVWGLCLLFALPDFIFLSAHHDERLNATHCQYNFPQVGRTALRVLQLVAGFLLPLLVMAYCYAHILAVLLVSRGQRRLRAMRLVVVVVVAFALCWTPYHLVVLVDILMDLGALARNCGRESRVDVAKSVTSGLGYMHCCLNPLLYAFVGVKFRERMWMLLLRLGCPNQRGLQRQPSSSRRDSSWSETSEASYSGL
On the technique in general: Flow cytometry measures light scatter and fluorescence of single cells or particles in a stream.

Assay [2] concerns the target human CXCR3A (Homo sapiens (Human), UniProt P49682). The assay is described as follows: FLIPR assay. The assay is classed as cell-based. Particulars: CHO-K1 cells expressing the human CXCR3A coupled to Galpha(16); CXCL10 agonist 20 nM; Fluo-4-AM fluorescence; mean values if determined several times. Put shortly: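 CHO-K1 cells expressing CXCR3A coupled to Gα16 were loaded with Fluo-4-AM for 1 h in Hepes-buffered HBSS, pH 7.4, with 5 mM probenecid. Compound dilutions were added on the FLIPR, followed by CXCL10 (added as a 20 nM solution). Baseline-subtracted peak fluorescence was fitted to a single-site curve for IC50.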

human CXCR3A, sequence (P49682 whole entry): as above

By pIC50 is commonly meant the negative decadic logarithm of the IC50, by convention in mol/L. With `C[C@@H]1CN(c2scnc2-c2nc3ccc(C4CC4)cc3[nH]2)CCN1C(=O)Cn1cnc2cccnc21` [Example 162, 1-{(R)-4-[4-(6-Cyclopropyl-1H-benzoimidazol-2-yl)-thiazol-5-yl]-2-methyl-piperazin-1-yl}-2-imidazo[4,5-b]pyridin-3-yl-ethanone], the pIC50 in assay [1] is 6.74; in assay [2], 9.00.
The corresponding values for `COCCOc1ccc2[nH]c(-c3nc(C(F)(F)F)sc3N3CCN(C(=O)Cn4cnc5cccnc54)[C@H](C)C3)nc2c1` [Example 163, 2-Imidazo[4,5-b]pyridin-3-yl-1-((R)-4-{4-[5-(2-methoxy-ethoxy)-1H-benzoimidazol-2-yl]-2-trifluoromethyl-thiazol-5-yl}-2-methyl-piperazin-1-yl)-ethanone] are 7.33 and 8.30.
For `C[C@@H]1CN(c2sc(C(F)(F)F)nc2-c2nc3cc(OCCO)ccc3[nH]2)CCN1C(=O)Cn1cnc2cccnc21` [Example 164, 1-((R)-4-{4-[5-(2-Hydroxy-ethoxy)-1H-benzoimidazol-2-yl]-2-trifluoromethyl-thiazol-5-yl}-2-methyl-piperazin-1-yl)-2-imidazo[4,5-b]pyridin-3-yl-ethanone] the same measures were 7.03 and 9.00.
`CC(=O)c1ccc2[nH]c(-c3nc(C(F)(F)F)sc3N3CCN(C(=O)Cn4cnc5cccnc54)[C@H](C)C3)nc2c1` [Example 165, 1-{(R)-4-[4-(5-Acetyl-1H-benzoimidazol-2-yl)-2-trifluoromethyl-thiazol-5-yl]-2-methyl-piperazin-1-yl}-2-imidazo[4,5-b]pyridin-3-yl-ethanone]: the negative logarithm of the IC50 (pIC50) is 7.01 in assay [1] and 9.00 in assay [2].
Consider `CC(O)c1ccc2[nH]c(-c3nc(C(F)(F)F)sc3N3CCN(C(=O)Cn4cnc5cccnc54)[C@H](C)C3)nc2c1` (stereo partly drawn) [Example 166, 1-((R)-4-{4-[5-(1-Hydroxy-ethyl)-1H-benzoimidazol-2-yl]-2-trifluoromethyl-thiazol-5-yl}-2-methyl-piperazin-1-yl)-2-imidazo[4,5-b]pyridin-3-yl-ethanone], for which the negative logarithm of the IC50 (pIC50) in assay [1] was 6.95; in assay [2] it was 9.00.
As to `COC(=O)c1ccc2[nH]c(-c3nc(C(F)(F)F)sc3N3CCN(C(=O)Cn4cnc5cccnc54)[C@H](C)C3)nc2c1` [Example 167, 2-{5-[(R)-4-(2-Imidazo[4,5-b]pyridin-3-yl-acetyl)-3-methyl-piperazin-1-yl]-2-trifluoromethyl-thiazol-4-yl}-1H-benzoimidazole-5-carboxylic acid methyl ester], the pIC50 is 6.85 in assay [1] and 9.00 in assay [2].
The corresponding values for `C[C@@H]1CN(c2sc(C(F)(F)F)nc2-c2nc3cc(C4(O)CC4)ccc3[nH]2)CCN1C(=O)Cn1cnc2cccnc21` [Example 168, 1-((R)-4-{4-[5-(1-Hydroxy-cyclopropyl)-1H-benzoimidazol-2-yl]-2-trifluoromethyl-thiazol-5-yl}-2-methyl-piperazin-1-yl)-2-imidazo[4,5-b]pyridin-3-yl-ethanone] are 6.36 and 8.52.
On to `C[C@@H]1CN(c2sc(C(F)(F)F)nc2-c2nc3cccnc3[nH]2)CCN1C(=O)Cn1cnc2cccnc21` [Example 169, 2-Imidazo[4,5-b]pyridin-3-yl-1-{(R)-4-[4-(3H-imidazo[4,5-b]pyridin-2-yl)-2-trifluoromethyl-thiazol-5-yl]-2-methyl-piperazin-1-yl}-ethanone], for which the values for the pIC50 in assay [1] and in assay [2] were 6.16 and 9.52, respectively.
With `C[C@@H]1CN(c2sc(C(F)(F)F)nc2-c2nc3ccncc3[nH]2)CCN1C(=O)Cn1cnc2cccnc21` [Example 170, 2-Imidazo[4,5-b]pyridin-3-yl-1-{(R)-4-[4-(3H-imidazo[4,5-c]pyridin-2-yl)-2-trifluoromethyl-thiazol-5-yl]-2-methyl-piperazin-1-yl}-ethanone], the pIC50 was 5.97 in assay [1] and 8.22 in assay [2].
The corresponding values for `C[C@@H]1CN(c2sc(C(F)(F)F)nc2-c2nc3cncnc3[nH]2)CCN1C(=O)Cn1cnc2cccnc21` [Example 171, 2-Imidazo[4,5-b]pyridin-3-yl-1-{(R)-2-methyl-4-[4-(9H-purin-8-yl)-2-trifluoromethyl-thiazol-5-yl]-piperazin-1-yl}-ethanone] are 5.97 and 9.00.
With `C[C@@H]1CN(c2sc(C(F)(F)F)nc2-c2nc3ccccc3[nH]2)CCN1C(=O)Cn1cnc2ccccc21` [Example 172, 2-Benzoimidazol-1-yl-1-{(R)-4-[4-(1H-benzoimidazol-2-yl)-2-trifluoromethyl-thiazol-5-yl]-2-methyl-piperazin-1-yl}-ethanone], the pIC50 in assay [1] was 7.14; in assay [2] it was 9.00.
For the compound `C[C@@H]1CN(c2sc(C(F)(F)F)nc2-c2nc3ccccc3[nH]2)CCN1C(=O)Cn1cccn1` [Example 173, 1-{(R)-4-[4-(1H-Benzoimidazol-2-yl)-2-trifluoromethyl-thiazol-5-yl]-2-methyl-piperazin-1-yl}-2-pyrazol-1-yl-ethanone], the pIC50 in assay [1] was 6.40; in assay [2] it was 9.30.
The corresponding values for `Cc1ccn(CC(=O)N2CCN(c3sc(C(F)(F)F)nc3-c3nc4ccccc4[nH]3)C[C@H]2C)n1` [Example 174, 1-{(R)-4-[4-(1H-Benzoimidazol-2-yl)-2-trifluoromethyl-thiazol-5-yl]-2-methyl-piperazin-1-yl}-2-(3-methyl-pyrazol-1-yl)-ethanone] are 7.28 and 9.70.
Take `C[C@@H]1CN(c2sc(C(F)(F)F)nc2-c2nc3ccccc3[nH]2)CCN1C(=O)Cn1cc(Cl)cn1` [Example 175, 1-{(R)-4-[4-(1H-Benzoimidazol-2-yl)-2-trifluoromethyl-thiazol-5-yl]-2-methyl-piperazin-1-yl}-2-(4-chloro-pyrazol-1-yl)-ethanone]: the pIC50 in assay [1] is 6.64; in assay [2], 10.00.
For the compound `Cc1ccnn1CC(=O)N1CCN(c2sc(C(F)(F)F)nc2-c2nc3ccccc3[nH]2)C[C@H]1C` [Example 176, 1-{(R)-4-[4-(1H-Benzoimidazol-2-yl)-2-trifluoromethyl-thiazol-5-yl]-2-methyl-piperazin-1-yl}-2-(5-methyl-pyrazol-1-yl)-ethanone], the pIC50 in assay [1] was 6.95; in assay [2], 10.00.
For `Cc1nc(C)n(CC(=O)N2CCN(c3sc(C(F)(F)F)nc3-c3nc4ccccc4[nH]3)C[C@H]2C)n1` [Example 178, 1-{(R)-4-[4-(1H-Benzoimidazol-2-yl)-2-trifluoromethyl-thiazol-5-yl]-2-methyl-piperazin-1-yl}-2-(3,5-dimethyl-[1,2,4]triazol-1-yl)-ethanone], the pIC50 in assay [1] is 6.65; in assay [2], 8.70.
Consider `C[C@@H]1CN(c2sc(C(F)(F)F)nc2-c2nc3ccc(N4CCN(C)CC4)cc3[nH]2)CCN1C(=O)Cn1cccn1` [Example 179, 1-((R)-2-Methyl-4-{4-[6-(4-methyl-piperazin-1-yl)-1H-benzoimidazol-2-yl]-2-trifluoromethyl-thiazol-5-yl}-piperazin-1-yl)-2-pyrazol-1-yl-ethanone], for which the results for the pIC50 in assay [1] and in assay [2] were 6.86 and 8.70, respectively.
For `C[C@@H]1CN(c2sc(C(F)(F)F)nc2-c2nc3ccc(N(C)C)cc3[nH]2)CCN1C(=O)Cn1cccn1` [Example 180, 1-{(R)-4-[4-(6-Dimethylamino-1H-benzoimidazol-2-yl)-2-trifluoromethyl-thiazol-5-yl]-2-methyl-piperazin-1-yl}-2-pyrazol-1-yl-ethanone] the same measures were 6.15 and 8.70.
The corresponding values for `C[C@@H]1CN(c2sc(C(F)(F)F)nc2-c2nc3ccc(CN4CCCCC4)cc3[nH]2)CCN1C(=O)Cn1cccn1` [Example 181, 1-{(R)-2-Methyl-4-[4-(6-piperidin-1-ylmethyl-1H-benzoimidazol-2-yl)-2-trifluoromethyl-thiazol-5-yl]-piperazin-1-yl}-2-pyrazol-1-yl-ethanone] are 5.51 and 7.24.
As for `C[C@@H]1CN(c2sc(C(F)(F)F)nc2-c2nc3ccc(CN(C)C)cc3[nH]2)CCN1C(=O)Cn1cccn1` [Example 182, 1-{(R)-4-[4-(6-Dimethylaminomethyl-1H-benzoimidazol-2-yl)-2-trifluoromethyl-thiazol-5-yl]-2-methyl-piperazin-1-yl}-2-pyrazol-1-yl-ethanone], the pIC50 in assay [1] was 5.65; in assay [2], 7.57.
`COC1CCN(Cc2ccc3nc(-c4nc(C(F)(F)F)sc4N4CCN(C(=O)Cn5cccn5)[C@H](C)C4)[nH]c3c2)C1` (stereo partly drawn) [Example 183, 1-((R)-4-{4-[6-(3-Methoxy-pyrrolidin-1-ylmethyl)-1H-benzoimidazol-2-yl]-2-trifluoromethyl-thiazol-5-yl}-2-methyl-piperazin-1-yl)-2-pyrazol-1-yl-ethanone]: the pIC50 in assay [1] was 5.84; in assay [2], 7.82.
On to `C[C@@H]1CN(c2sc(C(F)(F)F)nc2-c2nc3ccccc3n2C)CCN1C(=O)Cn1cccn1` [Example 184, 1-{(R)-2-Methyl-4-[4-(1-methyl-1H-benzoimidazol-2-yl)-2-trifluoromethyl-thiazol-5-yl]-piperazin-1-yl}-2-pyrazol-1-yl-ethanone], for which the pIC50 is 5.47 in assay [1] and 7.28 in assay [2].
The corresponding values for `COCCn1c(-c2nc(C(F)(F)F)sc2N2CCN(C(=O)Cn3cccn3)[C@H](C)C2)nc2ccccc21` [Example 185, 1-((R)-4-{4-[1-(2-Methoxy-ethyl)-1H-benzoimidazol-2-yl]-2-trifluoromethyl-thiazol-5-yl}-2-methyl-piperazin-1-yl)-2-pyrazol-1-yl-ethanone] are 5.18 and 7.43.
